Results on 8 compounds are retold here after patent US10961222B2, “Chemical compound of isocitrate dehydrogenase inhibitor, and application thereof” (NANJING SANHOME PHARMACEUTICAL CO., LTD., priority 2016, dated 2021).

Structures are written as SMILES.

Assay [1] deals with U87-MG (IDH2-R140Q) subcutaneous xenograft tumor. The assay can be described thus: Subcutaneous xenograft tumor caused by U87-MG (IDH2-R140Q) mutant cells in vivo: intratumor 2-HG. Particulars: for Intratumor 2-HG(%) after 10 days of administration: intragastric, mean, relative to U87-MG (IDH2-R140Q) control group; for ability of lowering 2-HG level compared with positive compound AG-221: U87-MG (IDH2-R140Q) subcutaneous xenograft model. More on the design: species or system BALB/c nude mice. An excerpt: 1.2 Animals: BALB/c nude mice, 6-7 weeks old, female, 18-22 g, purchased from Nanjing Jinlaichang Company.
U87-MG (IDH2-R140Q) cells and U87-MG cells (wild type) were expanded, and cells in logarithmic growth phase were used for tumor inoculation in vivo. 16 mice were inoculated subcutaneously into the right lower back of the body at an amount of 2×10^6 cells/mouse (the volume ratio of cell suspension to Matrigel was 1:0.8).
The non-mutation control group was nude mice inoculated with U87-MG cells, and the test compound groups and vehicle control group were nude mice inoculated with U87-MG (IDH2-R140Q) cells.
Each group was intragastrically administered with a corresponding concentration of the compound solution, the administration volume was 100 μL/10 g body weight, and the control group was administered the same volume of blank vehicle.
After 10 days of administration, the mice were sacrificed. The tumors were exfoliated, homogenized, and the 2-HG content in the tumor was examined.
The 2-HG concentration in the homogenate of each animal tumor in each group was determined by LC-MS/MS. The percentage (2-HG %) was calculated; the calculation formula is as follows 2-HG %=(2-HG concentration of administration group tumor−2-HG concentration of U87-MG control group tumor)/(2-HG concentration of U87−MG(IDH2-R140Q) control group tumor−2-HG concentration of U87-MG control group tumor)×100%.

Assay [2] has as its target T1, U87-MG cell line of overexpressed mutant IDH2 (R140Q) (Homo sapiens, UniProt P48735, R140Q).
T1 construct: expressed in transfected cells
T1 sequence (P48735 40-452 R140Q): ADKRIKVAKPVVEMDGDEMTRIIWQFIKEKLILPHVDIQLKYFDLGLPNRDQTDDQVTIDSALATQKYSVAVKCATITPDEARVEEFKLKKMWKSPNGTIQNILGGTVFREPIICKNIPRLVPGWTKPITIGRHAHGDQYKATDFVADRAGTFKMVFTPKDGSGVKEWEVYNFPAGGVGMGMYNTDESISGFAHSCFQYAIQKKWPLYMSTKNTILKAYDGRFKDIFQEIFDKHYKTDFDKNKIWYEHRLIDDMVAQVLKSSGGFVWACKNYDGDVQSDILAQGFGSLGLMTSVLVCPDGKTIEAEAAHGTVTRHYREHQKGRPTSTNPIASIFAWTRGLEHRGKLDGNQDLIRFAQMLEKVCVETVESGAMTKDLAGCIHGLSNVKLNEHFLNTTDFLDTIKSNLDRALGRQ
The assay can be described thus: Cell activity in vitro: 2-HG in culture supernatant of U87-MG (IDH2-R140Q) cells by LC-MS/MS. Type of assay: cell-based. Particulars: U87-MG (IDH2-R140Q) cells, 72 hours, 2-HG in supernatant; read-out: IC50 (2-HG remaining compared to untreated). The procedure: 1.2 Cells: human glioblastoma cell line U87-MG, purchased from the American Type Culture Collection (ATCC);
Cell recovery: U87-MG (IDH2-R140Q) cells and U87-MG cells were put into a 37° C. water bath, then transferred to 15 mL of pre-warmed medium, centrifuged at 1000 rpm for 5 minutes, and the medium was discarded. The cells were resuspended in 15 mL of fresh medium, transferred to a T75 flask and cultured in a 37° C. incubator with 5% CO2. After 24 hours, the medium was changed to fresh medium.
Cell passage: The above-mentioned recovered cells were transferred to a 50 mL sterile centrifuge tube, centrifuged at 1000 rpm for 5 minutes, and the medium was discarded. The cells were resuspended evenly and counted. The cell density was adjusted appropriately in a 15 mL fresh medium, and then added to T75 culture flask. The culture flask was incubated in an incubator with 5% CO2 at 37° C.
After cells grown to a relatively high density in the culture dish, the cells were trypsinized, resuspended in medium (MEM+10% FBS), and counted. After adjusting the cell concentration, the resuspended cells were seeded in a 96-well plate at 5×10^3 cells per well. After inoculation, the cells were cultured for 24 hours until the cells adhered. The medium were sucked out, and the medium containing gradient concentration of compound was added, 100 μL per well. The cells were further cultured for 72 hours. The s 20 μL of upernatant was taken and put into a 2 mL 96-well sample-processing plate. 480 μL of dilution solution was added and shaken for mixing, and then centrifuged at 4500 rpm for 5 minutes. 200 μL of supernatant was transferred for LC-MS/MS injection analysis.
Column: Shim-pack XR-ODS 30L*2.0; mobile phase: acetonitrile-0.2% ammonia, 5 mM ammonium acetate aqueous solution; column temperature: 30° C.; flow rate: 0.4 mL/min; gradient elution conditions are as follows: […]
Atmospheric […] chemical ionization (APCI) was used. Source parameters was set as follows: IonSpray Voltage/IS-4500V; auxiliary gas 1 (Ion Source Gas 1/GS 1, N2), 55Arb; auxiliary gas 2 (Ion Source Gas 2, N2), 55Arb; auxiliary gas heating temperature (Temperature/TEM), 500° C.; curtain gas/CUR, 25Arb; collision gas/CAD, N2, 8 Pa.
Multi-ion reaction monitoring (MRM) in negative ion mode (Negative) was used. […] The internal standard (IS) MRM parameters: parent ion (Q 1 Mass), 178.0 Da; daughter ion (Q3 Mass), 149.0 Da; Decluster Potential (DP), −51V; collision voltage (Collision Energy/CE), −17 eV
By determining the 2-HG content in the cell culture supernatant of each well using LC-MS/MS, the mutant enzyme activity (2-HG remaining compared to untreated %) was calculated. The calculation formula: 2-HG remaining compared to untreated %=(Measured 2-HG level—U87-MG control 2-HG level)/(Untreated 2-HG level—U87-MG control 2-HG level)×100. […] Data were processed by GraphPad Prism v5.0 software and fitted to obtain IC50.

The target in the next assay is T2, IDH2-R140Q mutant enzyme (Homo sapiens, UniProt P48735, R140Q).
T2 construct: purchased BPS 71100-1
T2 sequence (P48735 40-452 R140Q): T1 sequence (P48735 40-452 R140Q)
The experiment in a line: Inhibitory activity of compounds on IDH2-R140Q enzyme in vitro (diaphorase/resazurin fluorescence). The class given is biochemical. Particulars: IDH2-R140Q, pre-incubated 16 h with enzyme and NADPH, reaction 1 h with α-ketoglutarate; read-out: R140Q IC50. The procedure: Instrument: SpectraMax M3 Multi-Mode Microplate Reader, purchased from Molecular Devices.
In a 96-well plate, 40 μL of reaction buffer containing 2× enzyme (IDH2-WT or IDH2-R140Q) and cofactor (NADP or NADPH) was added to each well of the compound group and the DMSO control group, and 40 μL of reaction buffer containing 2× cofactor (NADP or NADPH) was added to each well of the enzyme-free control group.
20 μL of reaction buffer containing 4× compound to be tested was added to each well of the compound group. The compound was pre-formulated into 200× mother liquor with 100% DMSO; in the final reaction system, the concentration of DMSO was 0.5%. 20 μL of reaction buffer containing DMSO was added to each well of the DMSO control group; in the final reaction system, the concentration of DMSO was 0.5%.
The compound was mixed well with the enzyme and cofactor, and pre-incubated at room temperature for 16 h;
20 μL of reaction buffer containing 4× reaction substrate was added to each well. After mixed uniformly, the mixture was reacted at room temperature for 1 h.
3× termination and detection solution (it was prepared with reaction buffer, the final concentration of Diaphorase was 0.015 mg/mL, and the final concentration of Resazurin was 0.03 mM) was prepared. 40 μL of 3× termination and detection solution was added to each well of the enzyme reaction system. After mixed uniformly, the mixture was incubated at room temperature for 10 min;
Fluorescence values of two wells were obtained and averaged and the activity rate (Activity %) was calculated. The calculation formula: Activity %=(Measured data−Subtract background)/(DMSO Control−Subtract background)×100, wherein “Measured data” is fluorescence value of the compound in the pre-incubated wells, “Subtract background” is the fluorescence value of the enzyme-free control wells, and “DMSO Control” is the fluorescence value in the DMSO pre-incubated wells. Data was processed by GraphPad Prism v5.0 software and fitted to obtain IC50.
For orientation: Alamar Blue is a resazurin reagent that responds to reducing activity.

With `OC1CCCN(c2nc(Nc3ccnc(C(F)(F)F)c3)nc(-c3cccc(C(F)(F)F)n3)n2)C1` (stereo not shown) [Example 3, 4-(3-Hydroxypiperidin-1-yl)-6-(6-(trifluoromethyl)pyridin-2-yl)-N-(2-(trifluoromethyl)pyridin-4-yl)-1,3,5-triazin-2-amine], in assay [1] (12.5 mg/kg), the “Intratumor 2-HG(%) after 10 days of administration” value (from here on “Intratumor 2-HG(%) after 10 days”) amounted to 22%. Besides, the figures for the IC50 (in assay [2]; on IDH2-R140Q mutant enzyme) were 0.024 µM and 0.022 µM, respectively.

Regarding `OC1(C(F)(F)F)CN(c2nc(Nc3ccnc(C(F)(F)F)c3)nc(-c3cccc(C(F)(F)F)n3)n2)C1` [Example 34], the “Intratumor 2-HG(%) after 10 days” value in assay [1] (12.5 mg/kg) is reported as 24%. Also, the IC50 in assay [2] was 0.0171 µM; at IDH2-R140Q mutant enzyme, 0.0141 µM.

Take `FC1(F)CCCN(c2nc(Nc3ccnc(C(F)(F)F)c3)nc(-c3cccc(C(F)(F)F)n3)n2)C1` [Example 2, 4-(3,3-Difluoropiperidin-1-yl)-6-(6-(trifluoromethyl)pyridin-2-yl)-N-(2-(trifluoromethyl)pyridin-4-yl)-1,3,5-triazin-2-amine]: the “Intratumor 2-HG(%) after 10 days” value in assay [1] (12.5 mg/kg) is listed as 14%. Further, the concentration for half-maximal inhibition (IC50) in assay [2] came out at 0.027 µM; on IDH2-R140Q mutant enzyme it was 0.023 µM.

As for `N#C[C@H]1CCN(c2nc(Nc3ccnc(C(F)(F)F)c3)nc(-c3cccc(C(F)(F)F)n3)n2)C1` [Example 51, 4-((S)-3-cyanopyrrolidin-1-yl)-6-(6-(trifluoromethyl)pyridin-2-yl)-N-(2-(trifluoromethyl)pyridin-4-yl)-1,3,5-triazin-2-amine], in assay [1] (6.25 mg/kg), the “Intratumor 2-HG(%) after 10 days” value is 38%. Further, in assay [1], the “ability of lowering 2-HG level compared with positive compound AG-221” value was “substantially superior”. On IDH2-R140Q mutant enzyme, the IC50 was 0.018 µM.

Turning to `O[C@H]1CN(c2nc(Nc3ccnc(C(F)(F)F)c3)nc(-c3cccc(C(F)(F)F)n3)n2)C[C@@H]1F` [Example 23, 4-((3S,4S)-3-hydroxy-4-fluoropyrrolidin-1-yl)-6-(6-(trifluoromethyl)pyridin-2-yl)-N-(2-(trifluoromethyl)pyridin-4-yl)-1,3,5-triazin-2-amine], the “Intratumor 2-HG(%) after 10 days” value in assay [1] (6.25 mg/kg) was 67%. The IC50 on IDH2-R140Q mutant enzyme stood at 0.03 µM.

As for `FC(F)(F)c1cc(Nc2nc(-c3cccc(C(F)(F)F)n3)nc(N3CC(F)(F)C(F)(F)C3)n2)ccn1` [Example 55, 4-(3,3,4,4-Tetrafluoropyrrolidin-1-yl)-6-(6-(trifluoromethyl)pyridin-2-yl)-N-(2-(trifluoromethyl)pyridin-4-yl)-1,3,5-triazin-2-amine], the “Intratumor 2-HG(%) after 10 days” value in assay [1] (6.25 mg/kg) amounted to 1%. For the same compound, in assay [1], the “ability of lowering 2-HG level compared with positive compound AG-221” value was “substantially superior”. In addition, the IC50 in assay [2] amounted to 0.015 µM; on IDH2-R140Q mutant enzyme, 0.0101 µM.

On to `FC1(F)CCN(c2nc(Nc3ccnc(C(F)(F)F)c3)nc(-c3cccc(C(F)(F)F)n3)n2)CC1` [Example 1, 4-(4,4-Difluoropiperidin-1-yl)-6-(6-(trifluoromethyl)pyridin-2-yl)-N-(2-(trifluoromethyl)pyridin-4-yl)-1,3,5-triazin-2-amine], for which the “Intratumor 2-HG(%) after 10 days” value in assay [1] (25 mg/kg) is recorded as 22%. The IC50 in assay [2] was 0.015 µM; on IDH2-R140Q mutant enzyme, 0.011 µM.

For `FC(F)(F)c1cc(Nc2nc(OCC(F)(F)C(F)(F)F)nc(-c3cccc(C(F)(F)F)n3)n2)ccn1` [Example 45, 4-(2,2,3,3,3-pentafluoropropoxy)-6-(6-(trifluoromethyl)pyridin-2-yl)-N-(2-(trifluoromethyl)pyridin-4-yl)-1,3,5-triazin-2-amine], the “Intratumor 2-HG(%) after 10 days” value in assay [1] (6.25 mg/kg) came to 17%. In addition, the “ability of lowering 2-HG level compared with positive compound AG-221” value in assay [1] was “substantially superior”. Moreover, the IC50 was 0.0102 µM in assay [2] and 0.0063 µM at IDH2-R140Q mutant enzyme.

A word on the IC50: it is the concentration that inhibits the measured activity by half.
